From US5965088A, “Method for providing rapid disinfection of contact lenses” (priority 1997, dated 1999)
Like-named read-outs stand apart in the source and are kept apart here.

How the values were obtained:
[1] = tested on: Fusarium solani (ATCC 36031); test: Antimicrobial efficacy (stand-alone log reduction), F. solani; format: cell-based; conditions: for log reduction at 4 µg/mL: 4.0 ppm alexidine in ReNu MPS
Procedure: (§1) This Example illustrates the microbiocidal efficacy of solutions according to the present invention. The antimicrobial efficacy of each of various compositions for the chemical disinfection of contact lenses was evaluated. Microbial challenge inoculums were prepared using Pseudomonas aeruginosa (ATCC 9027), Staphylococcus aureus (ATCC 6538), Serratia marcescens (ATCC 13880), Candida albicans (ATCC 10231), and Fusarium solani (ATCC 36031). The test organisms were cultured on appropriate agar and the cultures were harvested using sterile DPBST (Dulbecco's Phosphate Buffered Saline plus 0.05% w/v polysorbate 80) or a suitable diluent and transferred to a suitable vessel. Spore suspensions were filtered through sterile glass wool to remove hyphal fragments. Serratia marcescens, as appropriate, was filtered (eg., through a 1.2 μ filter) to clarify the suspension. After harvesting, the suspension was centrifuged at no more than 5000× g for a maximum of 30 minutes at 20-25° C. The supernatant was poured off and resuspended in DPBST or other suitable diluent. The suspension was centrifuged a second time, and resuspended in DPBST or other suitable diluent. All challenge bacterial and fungal cell suspensions were adjusted with DPBST or other suitable diluent to 1×10^7 -10^8 cfu/mL. The appropriate cell concentration may be estimated by measuring the turbidity of the suspension, for example using a spectrophotometer at a preselected wavelength, for example 490 nm. One tube was prepared containing a minimum of 10 mL of test solution per challenge organism. Each tube of the solution to be tested was inoculated with a suspension of the test organism sufficient to provide a final count of 1.0×10^5 -10^6 cfu/mL, the volume of the inoculum not exceeding 1% of the sample volume. Dispersion of the inoculum was ensured by vortexing the sample for at least 15 seconds. The inoculated product was stored at 10-25° C. Aliquots in the amount of 1.0 mL were taken of the inoculated product for determination of viable counts after certain time periods of disinfection. The time points for the bacteria were 25, 50, 75, and 100% of the minimum disinfection time. Yeast and mold were tested at an additional timepoint of at least 400% of the minimum disinfection time. The suspension was mixed well by vortexing vigorously for at least 5 second. The 1.0 mL aliquots removed at the specified time intervals were subjected to a suitable series of decimal dilutions in validated neutralizing media. The suspensions were mixed vigorously and incubated for a suitable period of time to allow for neutralization of the microbial agent. The viable count of organisms was determined in appropriate dilutions by preparation of triplicate plates of trypticase soy (TSA) agar for bacteria and Sabouraud dextrose agar (SDA) for mold and yeast. The bacterial recovery plates were incubated at 30-35° C. for 2-4 days. The yeast was incubated at 20-30° C. for 2-4 days and mold recovery plates at 20-25° C. for 3-7 days. The average number of colony forming units was determined on countable plates. Countable plates refer to 30-300 cfu/plates for bacteria and yeast, and 8 to 80 cfu/plate for mold except when colonies are observed only for the 10^0 or 10^-1 dilution plates. The microbial reduction was then calculated at the specified time points. […] Following inoculation in a validated neutralizing broth and incubation for an appropriate period of time, the inoculum control must be between 1.0×10^5 -1.0×10^6 cfu/mL
(§2) The solutions were evaluated based on the performance requirement referred to as the "Stand-Alone Procedure for Disinfecting Products" (hereafter the "stand-alone test") and is based on the Disinfection Efficacy Testing for contact lens care products under the Draft Premarket Notification (510(k)) Guidance Document For Contact Lens Care Products dated Apr. 1, 1996, prepared by the U.S. Food and Drug Administration, Division of Ophthalmic Devices. […]

[2] = tested on: Serratia marcescens (ATCC 13880); test: Antimicrobial efficacy (stand-alone log reduction), S. marcescens; format: cell-based; conditions: Serratia marcescens
Procedure: as §1, §2

CCCCC(CC)CNC(=N)NC(=N)NCCCCCCNC(=N)NC(=N)NCC(CC)CCCC.Cl.Cl (stereo not drawn) [Alexidine.2HCl, 1,1 '-hexamethylenebis(5-(2-ethylhexyl)-biguanide) dihydrochloride]
log reduction at 4 ppm ([1]; ATCC36031, 2.5 min, aged 18 months, Exp. 1, 2.5 min): 2.5 | log reduction at 4 ppm ([1]; ATCC36031, 2.5 min, aged 18 months, Exp. 2, 2.5 min): 2.5 | log reduction at 4 ppm ([1]; ATCC36031, 2.5 min, aged 18 months, Exp. 3, 2.5 min): 2.2 | log reduction at 4 ppm ([1]; ATCC36031, 5 min, aged 18 months, Exp. 1, 5.0 min): 4.3 | log reduction at 4 ppm ([1]; ATCC36031, 5 min, aged 18 months, Exp. 2, 5.0 min): 4.1 | log reduction at 4 ppm ([1]; ATCC36031, 5 min, aged 18 months, Exp. 3, 5.0 min): 2.1 | log reduction at 4 ppm ([1]; ATCC36031, 0.125 h, aged 18 months, Exp. 1, 7.5 min): 4.6 | log reduction at 4 ppm ([1]; ATCC36031, 0.125 h, aged 18 months, Exp. 2, 7.5 min): 4.4 | log reduction at 4 ppm ([1]; ATCC36031, 0.125 h, aged 18 months, Exp. 3, 7.5 min): 2.4 | log reduction at 4 ppm ([1]; ATCC36031, 10 min, aged 18 months, Exp. 1, 10.0 min): > 4.6 | log reduction at 4 ppm ([1]; ATCC36031, 10 min, aged 18 months, Exp. 2, 10.0 min): 4.5 | log reduction at 4 ppm ([1]; ATCC36031, 10 min, aged 18 months, Exp. 3, 10.0 min): 2.5 | log reduction at 4 ppm ([1]; ATCC36031, 0.25 h, Ex. 6, aged 19 months at 25 °C, 15 min): 3.4 | log reduction at 4 ppm ([1]; ATCC36031, 0.25 h, Ex. 7, different lot aged 18 months, 15 min): 2.4 | log reduction at 4 ppm ([1]; ATCC36031, 0.25 h, Ex. 8, different batch aged 19 months at 25 °C, 15 min): 3.6 | log reduction at 4 ppm ([1]; ATCC36031, 0.5 h, Ex. 6, aged 19 months at 25 °C, 30 min): 4.3 | log reduction at 4 ppm ([1]; ATCC36031, 0.5 h, Ex. 7, different lot aged 18 months, 30 min): > 4.5 | log reduction at 4 ppm ([1]; ATCC36031, 0.5 h, Ex. 8, different batch aged 19 months at 25 °C, 30 min): > 4.6 | log reduction at 4 ppm ([1]; ATCC36031, 40 min, aged 18 months, Exp. 1, 40.0 min): > 4.6 | log reduction at 4 ppm ([1]; ATCC36031, 40 min, aged 18 months, Exp. 2, 40.0 min): > 4.5 | log reduction at 4 ppm ([1]; ATCC36031, 40 min, aged 18 months, Exp. 3, 40.0 min): > 4.6 | log reduction at 4 ppm ([1]; ATCC36031, 0.75 h, Ex. 6, aged 19 months at 25 °C, 45 min): 4.4 | log reduction at 4 ppm ([1]; ATCC36031, 0.75 h, Ex. 7, different lot aged 18 months, 45 min): > 4.5 | log reduction at 4 ppm ([1]; ATCC36031, 0.75 h, Ex. 8, different batch aged 19 months at 25 °C, 45 min): > 4.6 | log reduction at 4 µg/mL ([1]; ATCC36031, 1 h, 1 hr): 3.1 | log reduction at 4 ppm ([1]; ATCC36031, 1 h, Ex. 6, aged 19 months at 25 °C, 60 min): 4.2 | log reduction at 4 ppm ([1]; ATCC36031, 1 h, Ex. 7, different lot aged 18 months, 60 min): > 4.5 | log reduction at 4 ppm ([1]; ATCC36031, 1 h, Ex. 8, different batch aged 19 months at 25 °C, 60 min): > 4.6 | log reduction at 4 µg/mL ([1]; ATCC36031, 2 h, 2 hr): 4.1 | log reduction at 4 µg/mL ([1]; ATCC36031, 3 h, 3 hr): 4.5 | log reduction at 4 µg/mL ([1]; ATCC36031, 4 h, 4 hr): 4.6 | log reduction at 4 ppm ([1]; ATCC36031, 4 h, Ex. 6, aged 19 months at 25 °C, 4 h): > 4.4 | log reduction at 4 ppm ([1]; ATCC36031, 4 h, Ex. 7, different lot aged 18 months, 4 hrs): > 4.5 | log reduction at 4 ppm ([1]; ATCC36031, 4 h, Ex. 8, different batch aged 19 months at 25 °C, 4 hrs): > 4.6 | log reduction at 4 µg/mL ([1]; ATCC36031, 24 h, 24 hr): > 4.6 | log reduction at 4 ppm ([2]; ATCC13880, 2.5 min, 4.0 ppm, aged 18 months, Exp. 1, 2.5 min, read-out: Log Reduction): 0.5 | log reduction at 4 ppm ([2]; ATCC13880, 2.5 min, 4.0 ppm, aged 18 months, Exp. 2, 2.5 min, read-out: Log Reduction): 0.8 | log reduction at 4 ppm ([2]; ATCC13880, 2.5 min, 4.0 ppm, aged 18 months, Exp. 3, 2.5 min, read-out: Log Reduction): 0.8 | log reduction at 4 ppm ([2]; ATCC13880, 5 min): 0.6 | log reduction at 1 ppm ([2]; ATCC13880, 5 min, 1.0 ppm, read-out: Log Reduction at 5 Minutes): 0.5 | log reduction at 2 ppm ([2]; ATCC13880, 5 min, 2.0 ppm, read-out: Log Reduction at 5 Minutes): 0.8 | log reduction at 3 ppm ([2]; ATCC13880, 5 min, 3.0 ppm, read-out: Log Reduction at 5 Minutes): 1.1
